Patent US10703764B2, “Benzopiperazine compositions as BET bromodomain inhibitors” (FORMA Therapeutics, Inc., priority 2013, dated 2020)

What was measured:
BRD4 BD1 = molecular target: T1, BRD4 BD1 (Homo sapiens, UniProt O60885); experiment: AlphaScreen binding assay, BRD4 Bromodomain 1
T1 construct: made in house
Description: (§1) The binding of Example compounds to BRD4 Bromodomain 1 and BRD4 Bromodomain 2 was assessed using 384-well AlphaScreen assay technology. His-epitope tagged BRD4 BD144-168 and BRD4 BD2333-460 were cloned, expressed, and purified to homogeneity. BRD4 BD1 and BRD4 BD2 binding and inhibition was assessed by monitoring the engagement of biotinylated Histone H4 (1-21) K5/8/12/16 tetra-acetylated peptide with the targets using the AlphaScreen technology (PerkinElmer). Specifically, in a 384-well black or white flat bottom plate, BRD4 BD1 (50 nM final) or BRD4 BD2 (100 nM final) was combined with peptide (50 nM final for BD1 or 100 nM final for BD2) in 50 mM HEPES (pH 7.3), 100 mM NaCl, 0.1% (w/v) BSA, and 0.01% (w/v) Triton X-100 either in the presence of DMSO (final 1.25% DMSO) or compound dilution series in DMSO. Alpha streptavidin donor beads and Nickel-chelate acceptor beads were added to a final concentration of 10 μg/ml each. After a minimum of 1 hour equilibration, plates were read on a BMG PHERAstar FS multi-label reader (BMG LabTech). The half maximal inhibitory concentration (IC50) values were calculated using IDBS Activity Base software with a four parameter logistic curve fit by the equation y=A+((B−A)/(1+((C/x)^D))), wherein A denotes the bottom plateau of the curve, B denotes the top plateau of the curve, C denotes the x value at the middle of the curve, D denotes the slope factor, x denotes the original known x values, and y denotes the original known y values. Data was fitted using the Levenburg Marquardt algorithm.

BRD4 BD2 = molecular target: T2, BRD4 BD2 (Homo sapiens, UniProt O60885); experiment: AlphaScreen binding assay, BRD4 Bromodomain 2
T2 construct: made in house
Description: as §1

Row | Structure (SMILES) | IC50 (BRD4 BD1) [nM] | IC50 (BRD4 BD2) [nM]
1 | CC(=O)N1c2ccc(-c3ccccc3NS(C)(=O)=O)cc2N(C(=O)c2ccco2)C[C@@H]1C [Example I-827] | > 10000 | > 500
2 | CC(=O)N1c2ccc(-c3ccc(S(C)(=O)=O)cc3)cc2N(C(=O)CC#N)C[C@@H]1C [Example I-247] | > 10000 | > 500
3 | CC(=O)N1c2ccccc2N(Cc2cccc(Oc3ccccc3)c2)C[C@@H]1C [Example I-918] | > 10000 | > 500
4 | CC(=O)N1c2ccccc2N(C(=O)c2cc3ccncc3o2)C[C@@H]1C [Example I-777] | > 10000 | > 500
5 | COC(=O)N1c2ccc(-c3cnn(C4CNC4)c3)cc2N(C(=O)Oc2cccnc2)C[C@@H]1C [Example I-1295] | 1000 to 10000 | 50 to 500
6 | CC(=O)N1c2ccc(-c3cccc4cnn(C)c34)cc2N(C(=O)c2ccco2)C[C@@H]1C [Example I-842] | > 10000 | > 500
7 | CC(=O)N1c2ccccc2N(S(=O)(=O)c2cn(C)c(C)n2)C[C@@H]1C [Example I-956] | > 10000 | > 500
8 | C[C@H]1CN(C(=O)c2ccco2)c2cc(-c3ccc(S(C)(=O)=O)cc3)ccc2N1C=O [Example I-103, (S)-4-(furan-2-carbonyl)-2-methyl-6-(4-(methylsulfonyl)phenyl)-3,4-dihydroquinoxaline-1(2H)-carbaldehyde] | > 10000 | > 500
9 | CC(=O)N1c2ccccc2N(Cc2ccc(C(C)C)cc2)C[C@@H]1C [Example I-892] | > 10000 | > 500
10 | CC(=O)N1c2ccc(-c3ccc(S(C)(=O)=O)cc3)cc2N(C(=O)c2ccc(-c3ccccc3)o2)C[C@@H]1C [Example I-886] | > 10000 | 50 to 500
11 | CC(=O)N1c2ccc(-c3ccc(S(C)(=O)=O)cc3)cc2N(C(=O)NCc2ccccc2Cl)C[C@@H]1C [Example I-977] | > 10000 | > 500
12 | CC(=O)N1c2ccccc2N(C(=O)c2ccc3nccn3c2)C[C@@H]1C [Example I-776] | > 10000 | > 500
13 | CC(=O)N1c2ccc(-c3ccc(S(C)(=O)=O)cc3)cc2N(C(=O)N(C)C)C[C@@H]1C [Example I-248] | > 10000 | 50 to 500
14 | CC(=O)N1c2ccccc2N(Cc2cccc3c2OCO3)C[C@@H]1C [Example I-921] | > 10000 | 50 to 500
15 | COCCC(=O)N1C[C@H](C)N(C(C)=O)c2ccccc21 [Example I-700] | > 10000 | > 500
16 | COCC(=O)N1C[C@H](C)N(C(C)=O)c2ccccc21 [Example I-738] | > 10000 | > 500
17 | CC(=O)N1c2ccccc2N(C(=O)COc2ccc(F)cc2)C[C@@H]1C [Example I-735] | > 10000 | > 500

Row | Structure (SMILES) | IC50 (BRD4 BD1) [nM] | IC50 (BRD4 BD2) [nM]
18 | CC(=O)N1c2ccccc2N(C(=O)[C@H]2COc3ccccc3O2)C[C@@H]1C [Example I-737] | > 10000 | > 500
19 | CC(=O)N1c2ccc(-c3ccc(S(C)(=O)=O)cc3)cc2N(C(=O)c2cn(C)cn2)C[C@@H]1C [Example I-881] | > 10000 | > 500
20 | CC(=O)N1c2ccccc2N(Cc2ccc(Oc3ccccc3)cc2)C[C@@H]1C [Example I-919] | > 10000 | > 500
21 | CCc1ccc(CN2C[C@H](C)N(C(C)=O)c3ccccc32)cc1 [Example I-901] | > 10000 | > 500
22 | COc1ccc(Cl)c(OC(=O)N2C[C@H](C)N(C(C)=O)c3ccc(-c4cnn(C5CC5)c4)cc32)c1 [Example I-531] | 1000 to 10000 | 50 to 500
23 | CC(=O)N1c2ccccc2N(S(=O)(=O)c2ccccc2)C[C@@H]1C [Example I-932] | > 10000 | > 500
24 | CC(=O)N1c2ccccc2N(C(=O)c2cnn3c2OCCC3)C[C@@H]1C [Example I-773] | > 10000 | > 500
25 | CC(=O)N1c2ccc(-c3cnn(C4COC4)c3)cc2N(C(=O)C2CCC2)C[C@@H]1C [Example I-11, (S)-1-(4-(cyclobutanecarbonyl)-2-methyl-6-(1-(oxetan-3-yl)-1H-pyrazol-4-yl)-3,4-dihydroquinoxalin-1(2H)-yl)ethanone] | 1000 to 10000 | 50 to 500
26 | CC(=O)N1c2ccc(-c3ccc(S(C)(=O)=O)cc3)cc2N(C(=O)NC2CCCC2)C[C@@H]1C [Example I-968] | 1000 to 10000 | 50 to 500
27 | CC(=O)N1c2ccc(-c3cnn(CC(C)(C)O)c3)cc2N(C(=O)C2CC2)C[C@@H]1C [Example I-343] | 1000 to 10000 | 50 to 500
28 | CC(=O)N1c2ccc(-c3cnn(C4CC4)c3)cc2N(C(=O)Oc2cncc3ccccc23)C[C@@H]1C [Example I-525] | 1000 to 10000 | 50 to 500
29 | CC(=O)N1c2ccccc2N(C(=O)c2ccco2)C[C@@H]1C [Example I-720] | > 10000 | 50 to 500
30 | CC(=O)N1c2ccc(-c3ccc(S(C)(=O)=O)cc3)cc2N(C(=O)Nc2ccccc2)C[C@@H]1C [Example I-964] | 1000 to 10000 | 50 to 500
31 | C[C@H]1CN(C(=O)c2ccco2)c2cc(-c3ccc(C(=O)N(C)C)cc3)ccc2N1C(=O)C(F)(F)F [Example I-362] | > 10000 | > 500
32 | CC(C)OC(=O)N1C[C@H](C)N(C(=O)C2CC2)c2ccc(-c3cnn(CC(=O)N(C)C4CC4)c3)cc21 [Example I-610] | 1000 to 10000 | 50 to 500
33 | CC(=O)N1c2ccccc2N(CC2CCN(C(C)C)CC2)C[C@@H]1C [Example I-929] | > 10000 | > 500

The next lines start with the values.

Row | IC50 (BRD4 BD1) [nM] | IC50 (BRD4 BD2) [nM] | Structure (SMILES)
34 | 100 to 1000 | < 50 | CC(=O)N1c2ccc(-c3ccc(S(C)(=O)=O)cc3)cc2N(C(=O)OC2CCC(F)(F)CC2)C[C@@H]1C [Example I-32, (S)-4,4-difluorocyclohexyl 4-acetyl-3-methyl-7-(4-(methylsulfonyl)phenyl)-3,4-dihydroquinoxaline-1(2H)-carboxylate]
35 | 100 to 1000 | > 500 | CC(=O)N1c2ccc(-c3cnn(C)n3)cc2N(C(=O)c2ccco2)C[C@@H]1C [Example I-419]
36 | 1000 to 10000 | 50 to 500 | CC(=O)N1c2ncc(-c3ccc(C(=O)N(C)C)cc3)cc2N(C(=O)c2ccco2)C[C@@H]1C [Example I-272]
37 | 1000 to 10000 | > 500 | CC(=O)N1c2ccc(-c3cnn(C4COC4)c3)cc2N(C(=O)OCC2(C)COC2)C[C@@H]1C [Example I-61, (S)-(3-methyloxetan-3-yl)methyl 4-acetyl-3-methyl-7-(1-(oxetan-3-yl)-1H-pyrazol-4-yl)-3,4-dihydroquinoxaline-1(2H)-carboxylate]
38 | 1000 to 10000 | 50 to 500 | CC(=O)N1c2ccc(N(C)Cc3ccccc3)cc2N(C(=O)c2ccco2)C[C@@H]1C [Example I-990]
39 | 1000 to 10000 | 50 to 500 | CC(C)OC(=O)N1C[C@H](C)N(C(=O)C2CC2)c2ccc(-c3cnn(CC(=O)N(C)C)c3)cc21 [Example I-311]
40 | 1000 to 10000 | 50 to 500 | CC(=O)N1c2ccc(-c3ccc(S(C)(=O)=O)cc3)cc2N(c2ncc3ccccc3n2)C[C@@H]1C [Example I-48, (S)-1-(2-methyl-6-(4-(methylsulfonyl)phenyl)-4-(quinazolin-2-yl)-3,4-dihydroquinoxalin-1(2H)-yl)ethanone]
41 | 1000 to 10000 | < 50 | CC(=O)N1c2ccc(-c3cccc(C#N)c3)cc2N(C(=O)c2ccco2)C[C@@H]1C [Example I-812]
42 | 1000 to 10000 | 50 to 500 | CC(=O)N1c2ccc(-c3cnn(CC(N)=O)c3)cc2N(C(=O)C2CC2)C[C@@H]1C [Example I-655]
43 | 100 to 1000 | > 500 | CC(C)OC(=O)N1C[C@H](C)N(C(=O)C2CC2)c2ccc(-c3ccc(C(=O)NCCN)cc3)cc21 [Example I-481]
44 | 1000 to 10000 | 50 to 500 | COC(=O)N1c2ccc(-c3cnn(CCS(C)(=O)=O)c3)cc2N(C(=O)Oc2cccnc2)C[C@@H]1C [Example I-1280]
45 | 1000 to 10000 | 50 to 500 | CC(=O)N1c2ccc(-c3nnc(C)s3)cc2N(C(=O)c2ccco2)C[C@@H]1C [Example I-403]
46 | 1000 to 10000 | > 500 | COC(=O)N1c2ccc(-c3cnn(CCN(C)C)c3)cc2N(C(=O)OC(C)C)C[C@@H]1C [Example I-645]
47 | 1000 to 10000 | 50 to 500 | CC(=O)N1c2ccc(-c3cnn(C)c3C)cc2N(C(=O)OC(C)C)C[C@@H]1C [Example I-339]
48 | 1000 to 10000 | 50 to 500 | CC(=O)N1c2ccc(-c3cnn(C)c3C)cc2N(C(=O)c2ccco2)C[C@@H]1C [Example I-270]
49 | 1000 to 10000 | 50 to 500 | CC(=O)N1c2ccc(-c3ccc(S(C)(=O)=O)cc3)cc2N(C(=O)c2cc(C)[nH]n2)CC1C (stereo not drawn) [Example I-981]
50 | 1000 to 10000 | 50 to 500 | CC(=O)N1c2ccc(-c3ccc(S(=O)(=O)C(F)(F)F)cc3)cc2N(C(=O)c2ccco2)C[C@@H]1C [Example I-866]
51 | 100 to 1000 | > 500 | COC(=O)N1c2ccc(-c3ccc(CS(N)(=O)=O)cc3)cc2N(C(=O)OC(C)C)C[C@@H]1C [Example I-487]
